# Measurements as given in patent US6218438A, “Copolymer compositions for treating viral infections” (Supratek Pharma, Inc., priority 1999, dated 2001).
# Columns and labels:
# [1] = tested on: HIV-1 infection of MT2 cells; test: Inhibition of HIV-1 infection of uninfected MT2 cells; assay type: cell-based; conditions: Human immunodeficiency virus 1, compound in DMSO, 30 min before HIV
# Description: BBNH and Fe(III)-BBNH complex at various concentrations were examined for the ability to inhibit HIV-1 infection of uninfected MT2 cells. Aliquots of a solution of the compounds in dimethyl sulfoxide were added to uninfected MT2 cells (2×10^5 cells/ml) in RPMI medium containing 10% fetal bovine serum to provide defined final concentrations of test compound. The cells and test compounds were incubated for 30 minutes at 37° C., then inoculated with a suspension of HIV virions. The cells, test compounds and HIV were incubated for 18 h at 37° C., then the cells were collected by centrifugation, washed, and resuspended in RPMI medium containing 10% fetal bovine serum and containing the same concentration of test compound as initially employed. The cells were then cultured at 37° C. (with culture medium changes as required). HIV infection was assessed by microscopic examination of HIV-induced cytopathicity (syncytium) and/or by analysis of HIV p24 antigen levels in the culture supernatants.
# [2] = biological target: T1, HIV-1 reverse transcriptase (p51/p66 RT), RNAse H activity (Human immunodeficiency virus type 1 group M subtype B, UniProt P03366); test: Inhibition of RNAse H activity of RT; assay type: biochemical
# T1 construct: 10 ng of p51/p66 heterodimeric RT per assay were used
# Description: (§1) BBNH and Fe(III)-BBNH complex at various concentrations were examined for the ability to inhibit RNA dependent and DNA dependent DNA polymerase activities as well as RNAse H activity of HIV-1 reverse transcriptase (RT RDDP, RT DDDP, and RT RNAse H, respectively). To analyze RT RDDP and RT DDDP the following reaction mixture (100 μl total volume) was used: 50 mM Tris-HCl (pH 7.8), 60 mM KCl, 10 mM MgCl2, 10 ng of p51/p66 RT, 0.1-0.5 units of template/primer, and 0.5-25 μM [^3 H]dNTP. Aliquots of the test compounds dissolved in DMSO were added to the reaction mixtures, incubated for 10-20 min. at 37° C. and than quenched with 500 μl of cold 20 mM sodium pyrophosphate in 10% dichloroacetic acid. After 10 min. on ice, the samples were filtered on Whatman 934-AH glass fiber filters and washed with 10% dichloroacetic acid and ethanol, and the radioactivity was determined by liquid scintillation analysis. To analyze RT RNAse H the following reaction mixture (50 μl total volume) was used: 5OmM Tris-HCl (pH 8.0), 60 mM KCl, 8 mM MgCl2, and variable amounts of ([^3 H]rG)-poly(dC). Generally, 10 ng of p51/p66 heterodimeric RT per assay were used. Aliquots of the test compounds dissolved in DMSO were added to the reaction mixtures, incubated for 20 min. at 37° C. and than quenched by placing the tubes on ice followed by the addition of 100 μl of cold 7% perchloric acid. After 10 min. on ice, the samples were centrifuged at 12,000 g for 15 min. 100 μl of the supernatants were carefully removed, and the radioactivity was determined by liquid scintillation analysis.
# [3] = biological target: HIV-1 RT (Human immunodeficiency virus type 1 BH10, UniProt P03366); conditions: RDDP, RNase H, and DDDP; Borkow et al. 1997; cited from earlier work
# [4] = biological target: T2, HIV-1 reverse transcriptase (p51/p66 RT), DDDP activity (Human immunodeficiency virus type 1 group M subtype B, UniProt P03366); test: Inhibition of DNA dependent DNA polymerase activity of RT (RT DDDP); assay type: biochemical
# T2 construct: 10 ng of p51/p66 heterodimeric RT per assay were used
# Description: as §1
# [5] = Cytotoxic activity against uninfected MT2 cells (XTT assay); assay type: cell-based, human; conditions: human, 4 days at 37° C., in DMSO
# Description: BBNH and Fe(III)-BBNH complex at various concentrations were examined for cytotoxic activity against uninfected MT2 cells. Aliquots of a solution of the compounds in dimethyl sulfoxide were added to the MT2 cells (2×10^5 cells/ml) in RPMI medium containing 10% fetal bovine serum to provide defined final concentrations of test compound. The cells and test compounds were cultured for 4 days at 37° C., in the presence of 5% CO2 and then cytotoxic effect of the compounds was analyzed by using the standard XTT assay. The CC50 calculated from the results were 10±0.5 μM for BBNH and more than 1000 μM for Fe(III)-BBNH.
# [6] = tested on: cells; test: Cytotoxicity (general statement); assay type: cell-based
# [7] = biological target: HIV IN (integrase) (Human immunodeficiency virus type 1 group M subtype B, UniProt P03366); test: Inhibition of DNA-binding activity of HIV integrase; assay type: biochemical; conditions: in vitro
# [8] = biological target: T3, HIV-1 reverse transcriptase (p51/p66 RT), RDDP activity (Human immunodeficiency virus type 1 group M subtype B, UniProt P03366); test: Inhibition of RNA dependent DNA polymerase activity of RT (RT RDDP); assay type: biochemical
# T3 construct: 10 ng of p51/p66 heterodimeric RT per assay were used
# Description: as §1
# [9] = tested on: HIV-1 replication in cells; conditions: Borkow et al. 1997; cited from earlier work
structure (smiles),measurement,setting,value
"CC(C)(C)c1ccc(C(=O)NN=Cc2c(O)ccc3ccccc23)cc1 [BBNH, N-(4-t-butylbenzoyl)-2-hydroxy-1-naphthaldehyde hydrazone, reference compound]",IC50,[1],1.5 ± 0.5 µM
same,IC50,[2]; 10 min. preincubation,3.5 ± 0.8 µM
same,IC50,[2]; No preincubation,> 50 µM
same,preincubation needed for maximal inhibition of RT RNase H,"[2]; in vitro, preincubation of the enzyme with BBNH",10 to 15 min
same,inhibition of all three enzymatic activities of HIV-1 RT in vitro,[3],good inhibitor of all three enzymatic activities of HIV-1 RT in vitro
same,IC50,[4],12.5 ± 5 µM
same,CC50 at 96 h,[5],10 ± 0.5 µM
same,cytotoxicity,[6],cytotoxic
same,IC50,[7],~5 µM
same,preincubation needed for maximal inhibition of IN,[7]; preincubation of the enzyme with BBNH,10 to 15 min
same,IC50,[8],1.9 ± 0.1 µM
same,inhibition of replication of HIV-1 in infected cells,[9],inhibits replication of HIV-1 in infected cells
